We go through one compound from ChEMBL document CHEMBL1221220, “Transport and signaling via the amino acid binding site of the yeast Gap1 amino acid transceptor” (Nat Chem Biol, 2009).

Changes are numbered by the printed parent chain. Active and inactive are the calls of the source. No cut-off for these calls is given here.

In assay [1] the test system is T1, General amino-acid permease GAP1 (Saccharomyces cerevisiae), P19145 [S398C].
T1 sequence (whole entry): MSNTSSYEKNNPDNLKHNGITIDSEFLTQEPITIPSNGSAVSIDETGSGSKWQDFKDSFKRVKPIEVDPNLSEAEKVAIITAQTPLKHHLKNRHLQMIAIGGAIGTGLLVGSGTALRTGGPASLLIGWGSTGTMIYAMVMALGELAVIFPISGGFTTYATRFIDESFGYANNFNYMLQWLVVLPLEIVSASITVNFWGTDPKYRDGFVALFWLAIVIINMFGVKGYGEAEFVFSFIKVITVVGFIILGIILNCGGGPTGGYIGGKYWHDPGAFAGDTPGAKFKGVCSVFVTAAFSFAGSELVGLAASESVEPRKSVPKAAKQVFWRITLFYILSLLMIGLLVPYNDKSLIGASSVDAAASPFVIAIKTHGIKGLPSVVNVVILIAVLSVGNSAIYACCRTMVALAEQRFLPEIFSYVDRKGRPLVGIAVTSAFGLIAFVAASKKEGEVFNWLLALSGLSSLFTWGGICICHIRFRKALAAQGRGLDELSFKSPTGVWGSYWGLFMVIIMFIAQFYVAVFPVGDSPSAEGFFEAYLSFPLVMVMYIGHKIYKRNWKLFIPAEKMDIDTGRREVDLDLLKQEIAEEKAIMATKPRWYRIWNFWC
The assay is described as follows: Induction of yeast Gap1 S398C mutant-mediated trehalose activation at 10 mM.

In assay [2] the test system is T2, General amino-acid permease GAP1 (Saccharomyces cerevisiae), P19145 [M401C].
T2 sequence (whole entry): T1 sequence (whole entry) with C398S, M401C
The assay is described as follows: Induction of yeast Gap1 M401C mutant-mediated trehalose activation at 10 mM.

The test system of assay [3] is T3, General amino-acid permease GAP1 (Saccharomyces cerevisiae), P19145 [A405C].
T3 sequence (whole entry): T1 sequence (whole entry) with C398S, A405C
The assay can be described thus: Induction of yeast Gap1 A405C mutant-mediated trehalose activation at 10 mM.

In assay [4] the test system is T4, General amino-acid permease GAP1 (Saccharomyces cerevisiae), P19145 [V381C].
T4 sequence (whole entry): T1 sequence (whole entry) with V381C, C398S
The assay can be described thus: Induction of yest Gap1 V381C mutant-mediated trehalose activation at 10 mM.

For assay [5], the system named is Saccharomyces cerevisiae. The assay is described as follows: Induction of yeast Gap1 L404 mutant-mediated amino acid uptake at 2 mM in presence of 10 mM MTSEA treated before compound addition.
The test system of assay [6] is Saccharomyces cerevisiae. The assay is described as follows: Induction of yeast Gap1 L404 mutant-mediated trehalose activation at 10 mM.

With `NC(=O)NCCC[C@H](N)C(=O)O`, the outcome (in assay [1]; in assay [2]; in assay [3]; in assay [4]; with Saccharomyces cerevisiae [6]) was inactive. In the assay with Saccharomyces cerevisiae [5], the result was Active.
